Where a chain is given by its changes, count along the chain named. Structures can show the parent of a compound that is named as a salt. Where two headings read alike, the source gives them in different places.
How the values were obtained:
Cathepsin G = target: T1, Cathepsin G (Homo sapiens, UniProt P08311); assay: Measurement of cathepsin G inhibitory activity (Suc-Ala-Ala-Pro-Phe-pNA); assay type: biochemical; details: cathepsin G from human purulent sputum; 60 minutes at 37° C.
T1 construct: the product of Elastin Products Company, Inc. derived from human purulent sputum was used; purchased Elastin Products Company, Inc; host or cells: human purulent sputum
T1 sequence (P08311 21-244): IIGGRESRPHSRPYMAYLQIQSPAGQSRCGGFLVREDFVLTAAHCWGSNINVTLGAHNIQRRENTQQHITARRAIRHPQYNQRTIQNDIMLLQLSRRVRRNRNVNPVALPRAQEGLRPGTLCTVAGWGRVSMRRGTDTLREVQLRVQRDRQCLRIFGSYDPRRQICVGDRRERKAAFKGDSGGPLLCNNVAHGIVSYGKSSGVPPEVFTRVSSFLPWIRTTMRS
Method: (§1) Measurement of Cathepsin G Inhibitory Activity and Chymotrypsin Inhibitory Activity
(§2) Each activity of cathepsin G or chymotrypsin was measured by determining the amount of free p-nitroaniline quantitatively using a synthetic substrate that is colorless and yields colored product upon hydrolysis, by means of a spectrophotometer. Chymotrypsin Type I-S derived from bovine pancreas was purchased from SIGMA. As cathepsin G, the product of Elastin Products Company, Inc. derived from human purulent sputum was used. Suc-Ala-Ala-Pro-Phe-pNA (manufactured by SIGMA) was used as the synthetic substrate. An inhibitory effect of a compound on each enzyme was determined by the following method.
(§3) Each test compound (5 μmol) was weighed in a test tube and dissolved into 2 mL of DMSO. […] Then, 200 μL of 1 mmol/L substrate solution was added to initiate en enzymatic reaction under a temperature of 37° C.
(§4) Based on each inhibitory ratio, IC50 value was calculated.

Human chymase = target: T2, Human chymase (Homo sapiens, UniProt P23946); assay: Measurement of inhibitory activity of human chymase (Ang I substrate, His-Leu/OPT fluorescence)
T2 sequence (P23946 22-247): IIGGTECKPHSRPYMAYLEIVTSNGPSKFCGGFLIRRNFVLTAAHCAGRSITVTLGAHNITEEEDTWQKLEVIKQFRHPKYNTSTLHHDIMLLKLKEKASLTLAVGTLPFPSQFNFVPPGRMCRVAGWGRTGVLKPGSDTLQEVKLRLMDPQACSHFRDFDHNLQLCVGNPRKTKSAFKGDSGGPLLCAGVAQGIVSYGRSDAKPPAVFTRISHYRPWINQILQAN
Method: (§5) That is, the activity was measured by reacting free His-Leu formed together with Ang II with o-phthalaldehyde (hereinafter, abbreviated as OPT) to prepare a fluorescent derivative and determining the amount quantitatively by means of a fluorophotometer.
(§6) First, 3.6 μmol of each test compound was weighed in a test tube and was dissolved into 3 mL of DMSO. The DMSO solution was diluted 1000-fold with 20 mmol/L Tris-hydrochloric acid buffer solution (pH 8.0) containing 0.01% Triton X-100 and 0.5 mol/L potassium chloride to prepare 1.2×10^−6 mol/L solution, which was successively diluted with the buffer solution to prepare test sample solutions having concentrations of 1.2×10^−6 mol/L to 1.2×10^−9 mol/L. To 500 μL of the test sample solution of each concentration or buffer solution was added 50 μL of an enzyme solution, followed by 10 minutes of pre-incubation at 37° C. Then, 50 μL of 0.1 mmol/L Ang I solution was added to initiate a reaction. Human angiotensin I (manufactured by SIGMA) was employed as Ang I. The enzyme solution to be used for the reaction was adjusted so as to hydrolyze about 60% of substrate under the conditions, and the reaction wherein a buffer solution containing no enzyme was carried out as a blind test. […] Thereafter, the reaction mixture was centrifuged at 4° C. at 3,000 rpm for 10 minutes and 2 mL of 2 mol/L sodium hydroxide and 1 mL of methanol were added to 1 mL of the resulting supernatant. […] The measurement was repeated twice for each sample and blind test. The fluorescence intensity obtained by subtracting the average value at blind test from the average value thereof was determined as chymase activity.
(§7) In this regard, an enzymatic reaction using a buffer solution instead of the test sample solution was carried out as a control, and inhibitory ratio of chymase activity was determined as percentage by dividing the difference of subtraction of the activity at the addition of the test compound from the chymase activity at the control by the chymase activity at the control.

Simian chymase = target: T3, Simian chymase (Macaca mulatta, UniProt F6SAJ2); assay: Measurement of inhibitory activity of simian chymase (Ang I substrate, His-Leu/OPT fluorescence); assay type: biochemical, rhesus monkey; details: chymase from heart of rhesus monkey; 120 minutes at 37° C.; read-out: Simian chymase IC50 value
T3 sequence (F6SAJ2 22-247 limits assumed): T2 sequence (P23946 22-247) with F29S, E63K, D159Y, S201L, Q221K, A225G
Method: as §5, §6, §7

Chymotrypsin = target: T4, Chymotrypsin (Bos taurus, UniProt P00766); assay: Measurement of chymotrypsin inhibitory activity (Suc-Ala-Ala-Pro-Phe-pNA); assay type: biochemical; details: Chymotrypsin Type I-S from bovine pancreas; 30 minutes at 37° C.
T4 construct: Chymotrypsin Type I-S derived from bovine pancreas; purchased SIGMA Type I-S; host or cells: bovine pancreas
Method: as §1, §2, §3, §4

Stability in rat plasma = assay type: in vitro ADME; details: 10 μg/mL, 37° C., 60 minutes, HPLC
Method: Stability of the compounds of the invention in rat plasma was investigated.
Male SD rats (7-week-old) were anesthetized with ether under over-night fasting conditions and, after an abdominal part was incised, blood was collected from aorta abdominalis using a heparinized disposable plastic syringe. The blood was centrifuged under cooling to collect a supernatant plasma. The collected plasma was stored under freezing at −30° C. and was melted before use. After a test compound was dissolved in DMSO, the solution was added to 200 μL of the plasma so as to be 10 μg/mL, followed by incubation at 37° C. After 60 minutes, the mixture was acidified by adding 200 μL of 0.1 mol/L hydrochloric acid, and then extracted twice with 2 mL of ethyl acetate. The resulting organic layer was evaporated to dryness under a nitrogen gas flow and the residue was dissolved into 200 μL of acetonitrile to prepare a sample solution. On the other hand, the test compound was dissolved into 1% acetonitrile solution of DMSO so as to be 10 μg/mL as a control solution. The sample solution and control solution was investigated by high performance liquid chromatography (hereinafter, abbreviated as HPLC). Residual ratio (%) was determined as percentage by dividing the peak area of the sample solution by the peak area of the control solution.
Column: Waters Nova Pack C18 (inner diameter: 3.9 mm, length: 150 mm)
Mobile phase A: acetonitrile/water=10/90
Mobile phase B: acetonitrile/methanol=50/50
Eluent: Mobile phase A-mobile phase B (100/0 to 0/100, linear gradient, 50 minutes)
Amount of injection: 50 μL

[1] = read-out: Human cymase IC50 value, human chymase from silkworms infected with baculovirus, 120 minutes at 37° C.

IC50 (Cathepsin G) [nM] | IC50 (Simian chymase) [nM] | IC50 (Chymotrypsin) [nM] | IC50 (Human chymase) [nM] | Compound | further results
> 10000 | 6 | > 10000 | 45 | Cc1c(S(=O)(=O)Nc2ccc(-c3cnco3)cc2S(C)(=O)=O)sc2ccc(F)cc12 [Compound 48] | melting point: 199 to 201 °C
– | 157 | – | – | Cc1c(S(=O)(=O)Nc2ccc(C(=O)NCC(=O)O)cc2S(C)(=O)=O)sc2ccc(Cl)cc12 [Compound 52] | –
– | – | – | 102 | COc1oc(-c2ccc(NS(=O)(=O)c3sc4ccc(F)cc4c3C)c(S(C)(=O)=O)c2)nc1C [Compound 56, 5-fluoro-N-[2-methanesulfonyl-4-(5-methoxy-4-methyloxazol-2-yl)phenyl]-3-methylbenzo[b]thiophene-2-sulfonamide] | –
– | – | – | 20 | Cc1c(S(=O)(=O)Nc2ccc(-c3nc(CO)cs3)cc2S(C)(=O)=O)sc2ccc(F)cc12 [Compound 63, 5-fluoro-N-[4-(4-hydroxymethylthiazol-2-yl)-2-methanesulfonylphenyl]-3-methylbenzo[b]thiophene-2-sulfonamide] | –
– | – | – | 39 | Cc1c(S(=O)(=O)Nc2ccc(-c3nc(CO)co3)cc2S(C)(=O)=O)sc2ccc(F)cc12 [Compound 66] | melting point: 242 to 244 °C
– | – | – | 101 | Cc1coc(-c2ccc(NS(=O)(=O)c3sc4ccc(F)cc4c3C)c(S(C)(=O)=O)c2)n1 [Compound 68] | melting point: 206 to 208 °C
– | – | – | 20 | CS/C(=C\c1ccc(NS(=O)(=O)c2sc3ccc(F)cc3c2C)c(S(C)(=O)=O)c1)[S+](C)[O-] (stereo not shown) [Compound 72, 5-fluoro-N-[2-methanesulfonyl-4-((E)-2-methanesulfinyl-2-methylsulfanylvinyl)phenyl]-3-methylbenzo[b]thiophene-2-sulfonamide] | –
– | – | – | 55 | Cc1c(S(=O)(=O)Nc2ccc(-c3ncco3)cc2S(C)(=O)=O)sc2ccc(F)cc12 [Compound 73, 5-fluoro-N-[2-methanesulfonyl-4-(oxazol-2-yl)phenyl]-3-methylbenzo[b]thiophene-2-sulfonamide] | –

More lines, now with the values behind:

Compound | IC50 (Cathepsin G) [nM] | IC50 (Simian chymase) [nM] | IC50 (Chymotrypsin) [nM] | IC50 (Human chymase) [nM] | further results
Cc1c(S(=O)(=O)Nc2ccc(C(=O)NCC(=O)O)cc2S(C)(=O)=O)sc2ccc(Cl)cc12 (as salt: sodium) [Compound 52] | – | – | – | – | melting point: 290 to 292 °C
CC(C)C[C@H](NC(=O)[C@@H](NC(=O)N[C@@H](Cc1ccccc1)C(=O)O)[C@@H]1CCN=C(N)N1)C(=O)N[C@H](C=O)Cc1ccccc1 [Chymostatin, reference compound] | 5.99 | – | – | – | –
COC(=O)c1ccc(NS(=O)(=O)c2sc3ccc(Cl)cc3c2C)c(S(C)(=O)=O)c1 [Compound 1, Methyl 4-(5-chloro-3-methylbenzo[b]thiophene-2-sulfonylamino)-3-methanesulfonylbenzoate] | > 10000 | 50 | > 10000 | – | IC50 (Human chymase; [1]): 203 nM; Residual ratio in rat plasma (Stability in rat plasma): 93.9%
CCOC(=O)c1ccc(NS(=O)(=O)c2sc3ccc(Cl)cc3c2C)c(S(C)(=O)=O)c1 [Compound 2, Ethyl 4-(5-chloro-3-methylbenzo[b]thiophene-2-sulfonylamino)-3-methanesulfonylbenzoate] | – | 42 | – | – | –
Cc1c(S(=O)(=O)Nc2ccc(C(=O)OC(C)(C)C)cc2S(C)(=O)=O)sc2ccc(Cl)cc12 [Compound 3, tert-butyl 4-(5-chloro-3-methylbenzo[b]thiophene-2-sulfonylamino)-3-methanesulfonylbenzoate] | – | 178 | – | – | –
CCS(=O)(=O)c1cc(C(=O)OC)ccc1NS(=O)(=O)c1sc2ccc(Cl)cc2c1C [Compound 4, Methyl 4-(5-chloro-3-methylbenzo[b]thiophene-2-sulfonylamino)-3-ethanesulfonylbenzoate] | > 10000 | 111 | > 10000 | – | Residual ratio in rat plasma (Stability in rat plasma): 93.5%
COC(=O)c1cc(S(C)(=O)=O)c(NS(=O)(=O)c2sc3ccc(Cl)cc3c2C)cc1C [Compound 5, Methyl 4-(5-chloro-3-methylbenzo[b]thiophene-2-sulfonylamino)-5-methanesulfonyl-2-methylbenzoate] | > 1000 | 150 | > 1000 | – | Residual ratio in rat plasma (Stability in rat plasma): 85.2%
COC(=O)c1ccc(NS(=O)(=O)c2sc3ccc(Cl)cc3c2C)c([N+](=O)[O-])c1 [Compound 8, Methyl 4-(5-chloro-3-methylbenzo[b]thiophene-2-sulfonylamino)-3-nitrobenzoate] | > 10000 | – | > 10000 | – | –
CC(=O)c1ccc(NS(=O)(=O)c2sc3ccc(Cl)cc3c2C)c(S(C)(=O)=O)c1 [Compound 11, N-(4-acetyl-2-methanesulfonylphenyl)-5-chloro-3-methylbenzo[b]thiophene-2-sulfonamide] | – | 100 | – | 271 | –
Cc1c(S(=O)(=O)Nc2ccc(CO)cc2S(C)(=O)=O)sc2ccc(Cl)cc12 [Compound 13, 5-chloro-N-(4-hydroxymethyl-2-methanesulfonylphenyl)-3-methylbenzo[b]thiophene-2-sulfonamide] | – | 271 | – | – | –
CCOC(=O)c1ccc(NS(=O)(=O)c2sc3ccc(Cl)cc3c2C)cc1 [Compound 14, ethyl 4-(5-chloro-3-methylbenzo[b]thiophene-2-sulfonylamino)benzoate] | > 10000 | 278 | > 10000 | – | Residual ratio in rat plasma (Stability in rat plasma): 79.2%
CC(=O)c1ccc(NS(=O)(=O)c2sc3ccc(F)cc3c2C)c(S(C)(=O)=O)c1 [Compound 19, N-(4-acetyl-2-methanesulfonylphenyl)-5-fluoro-3-methylbenzo[b]thiophene-2-sulfonamide] | – | 20 | – | – | IC50 (Human chymase; [1]): 82 nM; Residual ratio in rat plasma (Stability in rat plasma): 96.2%
COC(=O)c1ccc(NS(=O)(=O)c2sc3ccccc3c2C)c(S(C)(=O)=O)c1 [Compound 20, methyl 4-(3-methylbenzo[b]thiophene-2-sulfonylamino)-3-methanesulfonylbenzoate] | – | 39 | – | – | IC50 (Human chymase; [1]): 305 nM
COC(=O)c1coc(-c2ccc(NS(=O)(=O)c3sc4ccc(Cl)cc4c3C)c(S(C)(=O)=O)c2)n1 [Compound 25, methyl 2-[4-(5-chloro-3-methylbenzo[b]thiophene-2-sulfonylamino)-3-methanesulfonylphenyl]oxazole-4-carboxylate] | – | 75 | – | – | melting point: 296 to 298 °C
Cc1c(S(=O)(=O)Nc2ccc(-c3nc(C(=O)O)co3)cc2S(C)(=O)=O)sc2ccc(Cl)cc12 [Compound 26, 2-[4-(5-chloro-3-methylbenzo[b]thiophene-2-sulfonylamino)-3-methanesulfonylphenyl]oxazole-4-carboxylic acid] | > 10000 | 10 | > 10000 | 150 | Residual ratio in rat plasma (Stability in rat plasma): 100%

From patent US7071220B2, “N-substituted benzothiophenesulfonamide derivatives” (Toa Eiyo Ltd., priority 2000, dated 2006)
